In US10392383B2, “3-(1H-benzo[d]imidazol-2-yl)-1H-pyrazolo[4,3-b]pyridines and therapeutic uses thereof” (Samumed, LLC, priority 2015, dated 2019):

Test system: IL-6 (THP-1 cells)
Test: IL-6 inhibition in LPS-stimulated THP-1 monocytes (HTRF)
Assay type: cell-based
Settings: Homo sapiens, IL-6 HTRF; for EC50: 500 ng/mL LPS, Table 6; for inhibition at 10 µM: LPS, Table 6, read-out: percent inhibition at 10 μM (given in parentheses for EC50 >10 μM)
How it was run: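 THP-1 cells in 1% FBS pre-incubated 2 h with compound (10-point 1:3 series from 10 μM, 0.1% DMSO), then stimulated with 500 ng/mL LPS for 22 h at 37 °C. IL-6 measured by HTRF 665/620 ratio, normalized to DMSO; EC50 by four-parameter fit, or % inhibition at 10 μM when EC50 >10 μM.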

Structure (SMILES)	EC50	inhibition at 10 µM
O=C(Nc1cncc(-c2ccc3[nH]nc(-c4nc5c(-c6cccc(F)c6)cccc5[nH]4)c3n2)c1)C1CC1 [Compound 20, N-(5-(3-(4-(3-Fluorophenyl)-1H-benzo[d]imidazol-2-yl)-1H-pyrazolo[4,3-b]pyridin-5-yl)pyridin-3-yl)cyclopropanecarboxamide]	> 10 µM	0%
O=C(Nc1cncc(-c2ccc3[nH]nc(-c4nc5c(N6CCCCC6)cccc5[nH]4)c3n2)c1)C1CC1 [Compound 188, N-(5-(3-(4-(Piperidin-1-yl)-1H-benzo[d]imidazol-2-yl)-1H-pyrazolo[4,3-b]pyridin-5-yl)pyridin-3-yl)cyclopropanecarboxamide]	> 10 µM	0%
FC1(F)CCN(Cc2cncc(-c3ccc4[nH]nc(-c5nc6c(N7CCCCC7)cccc6[nH]5)c4n3)c2)C1 [Compound 194, 5-(5-((3,3-Difluoropyrrolidin-1-yl)methyl)pyridin-3-yl)-3-(4-(piperidin-1-yl)-1H-benzo[d]imidazol-2-yl)-1H-pyrazolo[4,3-b]pyridine]	> 10 µM	46.9%
CN1CCN(c2cccc3[nH]c(-c4n[nH]c5ccc(-c6cncc(NC(=O)C7CCCC7)c6)nc45)nc23)CC1 [Compound 246, N-(5-(3-(4-(4-Methylpiperazin-1-yl)-1H-benzo[d]imidazol-2-yl)-1H-pyrazolo [4,3-b]pyridin-5-yl)pyridin-3-yl)cyclopentanecarboxamide]	> 10 µM	35.7%
CC(C)(C)CC(=O)Nc1cncc(-c2ccc3[nH]nc(-c4nc5ccccc5[nH]4)c3n2)c1 [Compound 268, N-(5-(3-(1H-Benzo[d]imidazol-2-yl)-1H-pyrazolo[4,3-b]pyridin-5-yl)pyridin-3-yl)-3,3-dimethylbutanamide]	2.5 µM	–
O=C(Nc1cncc(-c2ccc3[nH]nc(-c4nc5ccccc5[nH]4)c3n2)c1)C1CCCCC1 [Compound 275, N-(5-(3-(1H-Benzo[d]imidazol-2-yl)-1H-pyrazolo[4,3-b]pyridin-5-yl)pyridin-3-yl) cyclohexanecarboxamide]	1.84 µM	–
c1ccc(-c2ccc3[nH]nc(-c4nc5ccccc5[nH]4)c3n2)nc1 [Compound 280, 3-(1H-Benzo[d]imidazol-2-yl)-5-(pyridin-2-yl)-1H-pyrazolo[4,3-b]pyridine]	0.0727 µM	–
CCCC(=O)Nc1cncc(-c2ccc3[nH]nc(-c4nc5c(-c6ccsc6)cccc5[nH]4)c3n2)c1 [Compound 297, N-(5-(3-(4-(Thiophen-3-yl)-1H-benzo[d]imidazol-2-yl)-1H-pyrazolo[4,3-b]pyridin-5-yl)pyridin-3-yl)butyramide]	> 10 µM	0%
c1ccc(CNCc2cncc(-c3ccc4[nH]nc(-c5nc6c(-c7ccsc7)cccc6[nH]5)c4n3)c2)cc1 [Compound 304, N-Benzyl-1-(5-(3-(4-(thiophen-3-yl)-1H-benzo[d]imidazol-2-yl)-1H-pyrazolo[4,3-b]pyridin-5-yl)pyridin-3-yl)methanamine]	5.33 µM	–
c1csc(-c2cccc3[nH]c(-c4n[nH]c5ccc(-c6ccncc6)nc45)nc23)c1 [Compound 354, 5-(Pyridin-4-yl)-3-(4-(thiophen-2-yl)-1H-benzo[d]imidazol-2-yl)-1H-pyrazolo[4,3-b]pyridine]	> 10 µM	20.4%
O=C(Nc1cncc(-c2ccc3[nH]nc(-c4nc5c(-c6cccs6)cccc5[nH]4)c3n2)c1)C1CC1 [Compound 356, N-(5-(3-(4-(Thiophen-2-yl)-1H-benzo[d]imidazol-2-yl)-1H-pyrazolo[4,3-b]pyridin-5-yl)pyridin-3-yl)cyclopropanecarboxamide]	> 10 µM	25.7%
CN(C)CCNc1cc(F)cc(-c2cccc3[nH]c(-c4n[nH]c5ccc(-c6cncc(CNCC7CCCC7)c6)nc45)nc23)c1 [Compound 473, N^1-(3-(2-(5-(5-(((Cyclopentylmethyl)amino)methyl)pyridin-3-yl)-1H-pyrazolo[4,3-b]pyridin-3-yl)-1H-benzo[d]imidazol-4-yl)-5-fluorophenyl)-N^2,N^2-dimethylethane-1,2-diamine]	4.26 µM	–
CN(C)CCNc1cc(F)cc(-c2cccc3[nH]c(-c4n[nH]c5ccc(-c6ccccn6)nc45)nc23)c1 [Compound 476, N^1-(3-Fluoro-5-(2-(5-(pyridin-2-yl)-1H-pyrazolo[4,3-b]pyridin-3-yl)-1H-benzo[d]imidazol-4-yl)phenyl)-N^2,N^2-dimethylethane-1,2diamine]	8.75 µM	–
CS(=O)(=O)NCc1cc(F)cc(-c2cccc3[nH]c(-c4n[nH]c5ccc(-c6cncc(CNCc7ccccc7)c6)nc45)nc23)c1 [Compound 500, N-(3-(2-(5-(5-((Benzylamino)methyl)pyridin-3-yl)-1H-pyrazolo[4,3-b]pyridin-3-yl)-1H-benzo[d]imidazol-4-yl)-5-fluorobenzyl)methanesulfonamide]	1.34 µM	–
CS(=O)(=O)NCc1cc(F)cc(-c2cccc3[nH]c(-c4n[nH]c5ccc(-c6cncnc6)nc45)nc23)c1 [Compound 503, N-(3-Fluoro-5-(2-(5-(pyrimidin-5-yl)-1H-pyrazolo[4,3-b]pyridin-3-yl)-1H-benzo[d]imidazol-4-yl)benzyl)methanesulfonamide]	3.71 µM	–
Fc1cccc(-c2cccc3[nH]c(-c4n[nH]c5ccc(-c6cncc(OCCN7CCCC7)c6)nc45)nc23)c1 [Compound 514, 3-(4-(3-Fluorophenyl)-1H-benzo[d]imidazol-2-yl)-5-(5-(2-(pyrrolidin-1-yl)ethoxy)pyridin-3-yl)-1H-pyrazolo[4,3-b]pyridine]	0.727 µM	–
c1cncc(-c2cccc3[nH]c(-c4n[nH]c5ccc(-c6cncc(OC7CCCCC7)c6)nc45)nc23)c1 [Compound 559, 5-(5-(Cyclohexyloxy)pyridin-3-yl)-3-(4-(pyridin-3-yl)-1H-benzo[d]imidazol-2-yl)-1H-pyrazolo[4,3-b]pyridine]	0.0028 µM	–
Oc1cncc(-c2ccc3[nH]nc(-c4nc5c(-c6cccnc6)cccc5[nH]4)c3n2)c1 [Compound 565, 5-(3-(4-(Pyridin-3-yl)-1H-benzo[d]imidazol-2-yl)-1H-pyrazolo[4,3-b]pyridin-5-yl)pyridin-3-ol]	0.232 µM	–
c1cc(N2CCCCC2)c2nc(-c3n[nH]c4ccc(-c5cncc(OCCN6CCCC6)c5)nc34)[nH]c2c1 [Compound 610, 3-(4-(Piperidin-1-yl)-1H-benzo[d]imidazol-2-yl)-5-(5-(2-(pyrrolidin-1-yl)ethoxy)pyridin-3-yl)-1H-pyrazolo[4,3-b]pyridine]	0.695 µM	–
COc1cncc(-c2ccc3[nH]nc(-c4nc5c(N6CCCCC6)cccc5[nH]4)c3n2)c1 [Compound 612, 5-(5-Methoxypyridin-3-yl)-3-(4-(piperidin-1-yl)-1H-benzo[d]imidazol-2-yl)-1H-pyrazolo[4,3-b]pyridine]	> 10 µM	34.2%
Oc1cncc(-c2ccc3[nH]nc(-c4nc5c(N6CCCCC6)cccc5[nH]4)c3n2)c1 [Compound 613, 5-(3-(4-(Piperidin-1-yl)-1H-benzo[d]imidazol-2-yl)-1H-pyrazolo[4,3-b]pyridin-5-yl)pyridin-3-ol]	6.77 µM	–
CN1CCN(c2cccc3[nH]c(-c4n[nH]c5ccc(-c6cncc(OC7CCCCC7)c6)nc45)nc23)CC1 [Compound 639, 5-(5-(Cyclohexyloxy)pyridin-3-yl)-3-(4-(4-methylpiperazin-1-yl)-1H-benzo [d]imidazol-2-yl)-1H-pyrazolo[4,3-b]pyridine]	4.9 µM	–
CN1CCN(c2cccc3[nH]c(-c4n[nH]c5ccc(-c6cncc(OCc7ccccc7)c6)nc45)nc23)CC1 [Compound 646, 5-(5-(Benzyloxy)pyridin-3-yl)-3-(4-(4-methylpiperazin-1-yl)-1H-benzo[d]imidazol-2-yl)-1H-pyrazolo[4,3-b]pyridine]	3.34 µM	–
